ChEMBL document CHEMBL1201862, “PubChem BioAssay data set” (2004)
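Exposure lasted 48 hours, with cells grown in 96-well plates and compounds tested at five concentrations. Abbreviation: GI50, concentration required for 50% inhibition of growth.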 Active and inactive are the calls of the source. Cut-off read from the data, not from the text of the source: active = GI50 up to about 1.1 µM and inactive = higher.

How the values were obtained:
Test in all cases: growth of human tumour cells (NCI), 48 h
M14 = system: M14
EKVX = system: EKVX
A549 = system: A549
OVCAR-8 = system: OVCAR-8
SK-OV-3 = system: SK-OV-3
SF-295 = system: SF-295
ACHN = system: ACHN
UACC-62 = system: UACC-62
UO-31 = system: UO-31
SNB-75 = system: SNB-75
Hs-578T = system: Hs-578T
MOLT-4 = system: MOLT-4
DU-145 = system: DU-145
MDA-N = system: MDA-N
HT-29 = system: HT-29
SF-539 = system: SF-539
U-251 = system: U-251
LOX IMVI = system: LOX IMVI
HOP-62 = system: HOP-62
OVCAR-3 = system: OVCAR-3
IGROV-1 = system: IGROV-1
SK-MEL-2 = system: SK-MEL-2
HCT-116 = system: HCT-116
CAKI-1 = system: CAKI-1
HOP-92 = system: HOP-92
K562 = system: K562
CCRF-CEM = system: CCRF-CEM
NCI/ADR-RES = system: NCI/ADR-RES
HCC 2998 = system: HCC 2998
PC-3 = system: PC-3
HL-60 = system: HL-60
UACC-257 = system: UACC-257
OVCAR-4 = system: OVCAR-4
SF-268 = system: SF-268
SN12C = system: SN12C
NCI-H23 = system: NCI-H23
NCI-H460 = system: NCI-H460
TK-10 = system: TK-10
MCF7 = system: MCF7
BT-549 = system: BT-549
SK-MEL-28 = system: SK-MEL-28
SR = system: SR
RPMI-8226 = system: RPMI-8226
NCI-H522 = system: NCI-H522
OVCAR-5 = system: OVCAR-5
SNB-19 = system: SNB-19
HCT-15 = system: HCT-15
T47D = system: T47D
MDA-MB-231 = system: MDA-MB-231
SK-MEL-5 = system: SK-MEL-5
NCI-H226 = system: NCI-H226
A498 = system: A498
786-0 = system: 786-0
COLO 205 = system: COLO 205
SW-620 = system: SW-620
Malme-3M = system: Malme-3M
KM12 = system: KM12
MDA-MB-435 = system: MDA-MB-435

For COc1ccc2c(c1)CCN1CCc3ccccc3CC21 (stereo not drawn), the GI50 (M14) was 18.2 µM (inactive), the GI50 (EKVX) was > 100 µM (inactive) and the GI50 (A549) was 49.7 µM (inactive). The GI50 (OVCAR-8) was 63.5 µM (inactive), the GI50 (SK-OV-3) was 64.6 µM (inactive) and the GI50 (SF-295) was 19.2 µM (inactive). The GI50 (ACHN) was 45 µM (inactive), the GI50 (UACC-62) was 32.3 µM (inactive) and the GI50 (UO-31) was 11 µM (inactive). The GI50 (SNB-75) was 30.2 µM (inactive), the GI50 (Hs-578T) was 72.6 µM (inactive) and the GI50 (MOLT-4) was 35 µM (inactive). For the same compound, the GI50 (DU-145) was 65.2 µM (inactive), the GI50 (MDA-N) was 27.4 µM (inactive) and the GI50 (HT-29) was 27.8 µM (inactive). For the same compound, the GI50 (SF-539) was 36.6 µM (inactive), the GI50 (U-251) was 34.7 µM (inactive) and the GI50 (LOX IMVI) was 24 µM (inactive). The GI50 (HOP-62) was 72.8 µM (inactive), the GI50 (OVCAR-3) was 72.4 µM (inactive) and the GI50 (IGROV-1) was 56.5 µM (inactive). The GI50 (SK-MEL-2) was 57.3 µM (inactive), the GI50 (HCT-116) was 20.4 µM (inactive) and the GI50 (CAKI-1) was 47.2 µM (inactive). For the same compound, the GI50 (HOP-92) was 20.5 µM (inactive), the GI50 (K562) was 29 µM (inactive) and the GI50 (CCRF-CEM) was 33.3 µM (inactive). The GI50 (NCI/ADR-RES) was 42.9 µM (inactive), the GI50 (HCC 2998) was 21.2 µM (inactive) and the GI50 (PC-3) was 30 µM (inactive). The GI50 (HL-60) was 16.8 µM (inactive), the GI50 (UACC-257) was 29.7 µM (inactive) and the GI50 (OVCAR-4) was > 100 µM (inactive). For the same compound, the GI50 (SF-268) was 24.8 µM (inactive), the GI50 (SN12C) was 73.5 µM (inactive) and the GI50 (NCI-H23) was 39 µM (inactive). The GI50 (NCI-H460) was 30.8 µM (inactive), the GI50 (TK-10) was 35.7 µM (inactive) and the GI50 (MCF7) was 60.8 µM (inactive). The GI50 (BT-549) was 34 µM (inactive), the GI50 (SK-MEL-28) was 27.6 µM (inactive) and the GI50 (SR) was 35.2 µM (inactive). The GI50 (RPMI-8226) was 19.1 µM (inactive), the GI50 (NCI-H522) was 67.3 µM (inactive) and the GI50 (OVCAR-5) was 30.3 µM (inactive). For the same compound, the GI50 (SNB-19) was 32.9 µM (inactive), the GI50 (HCT-15) was 48.2 µM and the GI50 (T47D) was 43.7 µM (inactive). The GI50 (MDA-MB-231) was 52.2 µM (inactive), the GI50 (SK-MEL-5) was 15.1 µM (inactive) and the GI50 (NCI-H226) was 29 µM (inactive). The GI50 (A498) was 30 µM (inactive), the GI50 (786-0) was 31.3 µM (inactive) and the GI50 (COLO 205) was 19.4 µM (inactive). The GI50 (SW-620) was 45.3 µM (inactive), the GI50 (Malme-3M) was 43.1 µM (inactive) and the GI50 (KM12) was 37.2 µM (inactive). The GI50 (MDA-MB-435) was 26.8 µM (inactive).
